Data: ChEMBL document CHEMBL1139847, “Carbonic anhydrase inhibitors. DNA cloning, characterization, and inhibition studies of the human secretory isoform VI, a new target for sulfonamide and sulfamate inhibitors” (J Med Chem, 2007)

Molecular target: Carbonic anhydrase 9 (Homo sapiens, UniProt Q16790)

In the case of `Cc1ccc(S(N)(=O)=O)cc1` [P-TOLUENESULFONAMIDE], the Ki is reported as 460 nM.

Molecular target: Carbonic anhydrase 6 (Homo sapiens, UniProt P23280)
Sequence (P23280 whole entry): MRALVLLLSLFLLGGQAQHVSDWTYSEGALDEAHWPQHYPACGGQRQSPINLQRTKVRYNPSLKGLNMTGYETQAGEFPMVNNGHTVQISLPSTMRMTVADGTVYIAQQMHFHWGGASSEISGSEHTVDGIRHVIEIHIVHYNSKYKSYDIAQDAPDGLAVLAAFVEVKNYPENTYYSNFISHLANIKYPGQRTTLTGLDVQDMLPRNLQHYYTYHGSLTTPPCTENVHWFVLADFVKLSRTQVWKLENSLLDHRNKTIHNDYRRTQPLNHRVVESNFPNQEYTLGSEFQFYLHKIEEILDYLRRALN

Going from `Nc1ccc(S(=O)(=O)NCc2ccc(S(N)(=O)=O)cc2)cc1` to `Nc1ccc(S(=O)(=O)NCCc2ccc(S(N)(=O)=O)cc2)cc1`, the Ki falls from 55 nM to 24 nM (2.3-fold).

Compared with `Nc1ccc(S(N)(=O)=O)cc1Br`, `Nc1ccc(S(N)(=O)=O)cc1Cl` is 4.3-fold lower in Ki: 4680 nM for the first, 1100 nM for the second.

Compared with `Cn1nc(S(N)(=O)=O)sc1=N`, `Cc1ccc(S(N)(=O)=O)cc1` [P-TOLUENESULFONAMIDE] is 2.1-fold higher in Ki: 740 nM for the first, 1580 nM for the second. The first binds more tightly here.

`Nc1ccc(S(N)(=O)=O)cc1` [SULFANILAMIDE] and `NNc1ccc(S(N)(=O)=O)cc1` are within 1.5-fold of each other in Ki: 941 nM for the first, 1270 nM for the second.

Going from `Nc1nccc(Nc2ccc(S(N)(=O)=O)cc2)n1` to `NCc1ccc(S(N)(=O)=O)cc1` [MAFENIDE], the Ki rises from 86 nM to 4800 nM (56-fold).

Compared with `CCN[C@H]1CN(CCCOC)S(=O)(=O)c2sc(S(N)(=O)=O)cc21` [BRINZOLAMIDE], `Nc1ccc(S(=O)(=O)Nc2nnc(S(N)(=O)=O)s2)cc1` is 81-fold higher in Ki: 0.9 nM for the first, 73 nM for the second.

First: NS(=O)(=O)c1ccc(S(=O)(=O)Nc2cccc3c(Cl)c[nH]c23)cc1
Second: NS(=O)(=O)c1ccc(C(=O)O)cc1 [CARZENIDE]
The Ki of the first is 19-fold lower: 47 nM for the first, 887 nM for the second. The first binds more tightly here.

First: NS(=O)(=O)c1ccc(CO)cc1
Second: NS(=O)(=O)c1ccc(CCO)cc1
The Ki of the first is 1.6-fold higher: 6680 nM for the first, 4150 nM for the second.

`NNc1ccccc1S(N)(=O)=O` and `Nc1ccccc1S(N)(=O)=O` are within 1.5-fold of each other in Ki: 1090 nM for the first, 772 nM for the second.

Compared with `Nc1ccc(S(N)(=O)=O)cc1F`, `Nc1ccc(S(N)(=O)=O)cc1I` is 11-fold higher in Ki: 96 nM for the first, 1020 nM for the second. The first binds more tightly here.
